The source of these data is the supplement of paper PMC11208160.
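Note: IS621 bridge recombinase in Escherichia coli cells against a fixed T5 target plasmid.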

The series in a line: recombinant UMI read abundance after kanamycin selection (control-corrected) (log10(CPM+1)); higher = more efficient recombination; extreme values may be limits of the assay; sequences stand for … in AGTGCAGAGAAAATCGGCCAGTTTTCTCTGCCTGCAGTCCGCATGCCGTGGGACCCCTTGGGTTCTAACCTGTTGCCTAGATTTATGCAGCGGACTGCCTTTCTCCCAAAGTGATAAACCGG…AGGTTGGTTTCACT; site = the 11-nt donor. The protocol:
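Pooled E. coli donor-specificity screen for the IS621 bridge recombinase. Each library member carries a reprogrammed 11-nt donor and a full-length LE bridge RNA expressed in cis from the natural promoter, with a paired donor-binding loop (8-nt LDG + 4-nt RDG) and a target-binding loop fixed to T5. It is co-electroporated with a T5 target plasmid; recombinase is induced with 0.07 mM IPTG and recombinants are selected on kanamycin. UMIs are counted as CPM, averaged over two biological replicates and corrected by the unselected control. Molecule = full bridge RNA written as DNA, built from the T5 scaffold: LDG = donor specificity nt 1-8, RDG = reverse complement of nt 8-11.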
Take “ACCTAGACATGGACCGGTTTTCCCGGTAATCCGTATTTGGA (site ACCTAGACTAC)”: the “recombinant UMI read abundance (log10)” value came to 0. As to “ACCTAGACATGGACCGGTTTTCCCGGTAATCCGTATTTGGA (site ACCTAGACTCC)”, the “recombinant UMI read abundance (log10)” value was 0.0104. The same measure for “ACCTAGACATGGACCGGTTTTCCCGGTAATCCGTATTTGGA (site ACCTAGACTGC)”: 0; for “ACCTAGACATGGACCGGTTTTCCCGGTAATCCGTATTTGGA (site ACCTAGACTTC)”: 0.725; for “ACCTAGTCATGGACCGGTTTTCCCGGTAATCCGTATTTGGG (site ACCTAGACTCC)”: 0.

On to “ACCTAGTCATGGACCGGTTTTCCCGGTAATCCGTATTTGGG (site ACCTAGCCTCC)”, for which the “recombinant UMI read abundance (log10)” value is 0.017. The same measure for “ACCTAGTCATGGACCGGTTTTCCCGGTAATCCGTATTTGGG (site ACCTAGGCTCC)”: 0.0399.

Regarding “ACCTAGTCATGGACCGGTTTTCCCGGTAATCCGTATTTGGG (site ACCTAGTCTCC)”, the “recombinant UMI read abundance (log10)” value was 0.0642. For the sequence “ACCTATACATGGACCGGTTTTCCCGGTAATCCGTATTTGAC (site AACTATACTGT)”, the “recombinant UMI read abundance (log10)” value came to 0. The same measure for “ACCTATACATGGACCGGTTTTCCCGGTAATCCGTATTTGAC (site ACCTATACTGT)”: 1.58.

Take “ACCTATACATGGACCGGTTTTCCCGGTAATCCGTATTTGAC (site AGCTATACTGT)”: the “recombinant UMI read abundance (log10)” value is 0.0116. The same measure for “ACCTATACATGGACCGGTTTTCCCGGTAATCCGTATTTGAC (site ATCTATACTGT)”: 0.368; for “ACCTCGGCATGGACCGGTTTTCCCGGTAATCCGTATTTGTT (site ACCTCGGCTAA)”: 0.681; for “ACCTGGGCATGGACCGGTTTTCCCGGTAATCCGTATTTGCA (site ACCTGGGCTTG)”: 0.909. On to “ACCTTGACATGGACCGGTTTTCCCGGTAATCCGTATTTGGG (site ACCTAGACTCC)”, for which the “recombinant UMI read abundance (log10)” value turned out to be 0.0118. Regarding “ACCTTGACATGGACCGGTTTTCCCGGTAATCCGTATTTGGG (site ACCTCGACTCC)”, the “recombinant UMI read abundance (log10)” value worked out at 0.0142.

As for “ACCTTGACATGGACCGGTTTTCCCGGTAATCCGTATTTGGG (site ACCTGGACTCC)”, the “recombinant UMI read abundance (log10)” value came to 0.0127. In the case of “ACCTTGACATGGACCGGTTTTCCCGGTAATCCGTATTTGGG (site ACCTTGACTCC)” it was 0.0408; in that of “ACGAAGACATGGACCGGTTTTCCCGGTAATCCGTATTTGCA (site AAGAAGACTTG)”, 2.3; in that of “ACGAAGACATGGACCGGTTTTCCCGGTAATCCGTATTTGCA (site ACGAAGACTTG)”, 2.78. In the case of “ACGAAGACATGGACCGGTTTTCCCGGTAATCCGTATTTGCA (site AGGAAGACTTG)” it was 1.81. In the case of “ACGAAGACATGGACCGGTTTTCCCGGTAATCCGTATTTGCA (site ATGAAGACTTG)” it was 2.04. Consider “ACGAAGACATGGACCGGTTTTCCCGGTAATCCGTATTTGCG (site ACGAAGACTCG)”, for which the “recombinant UMI read abundance (log10)” value came to 2.77. In the case of “ACGAAGACATGGACCGGTTTTCCCGGTAATCCGTATTTGCG (site AGGAAGACTTG)” it was 0; in that of “ACGAAGTCATGGACCGGTTTTCCCGGTAATCCGTATTTGGG (site ACGAAGTCTCC)”, 0.574; in that of “ACGAATTCATGGACCGGTTTTCCCGGTAATCCGTATTTGCG (site ACGAATTCTCG)”, 2.06.

As for “ACGACTTCATGGACCGGTTTTCCCGGTAATCCGTATTTGTT (site ACGACTTCTAA)”, the “recombinant UMI read abundance (log10)” value worked out at 1.23.

On to “ACGAGAACATGGACCGGTTTTCCCGGTAATCCGTATTTGTT (site ACGAGAACTAA)”, for which the “recombinant UMI read abundance (log10)” value was 2.8. In the case of “ACGCAACCATGGACCGGTTTTCCCGGTAATCCGTATTTGAA (site ACGCAACCTTT)” it was 0; in that of “ACGCGGACATGGACCGGTTTTCCCGGTAATCCGTATTTGTG (site ACGCGGACTCA)”, 1.74. The same measure for “ACGCGTCCATGGACCGGTTTTCCCGGTAATCCGTATTTGTG (site ACGCGTCCTCA)”: 0.257; for “ACGCGTGCATGGACCGGTTTTCCCGGTAATCCGTATTTGAC (site ACGCGTGCTGT)”: 2.96. The same measure for “ACGCTATCATGGACCGGTTTTCCCGGTAATCCGTATTTGCA (site ACAGTATCTTG)”: 1.92.

On to “ACGCTATCATGGACCGGTTTTCCCGGTAATCCGTATTTGCA (site ACGCTATCTTG)”, for which the “recombinant UMI read abundance (log10)” value worked out at 2.75.

On to “ACGGACACATGGACCGGTTTTCCCGGTAATCCGTATTTGGT (site ACGGACACTAC)”, for which the “recombinant UMI read abundance (log10)” value came to 1.82. The same measure for “ACGGCCTCATGGACCGGTTTTCCCGGTAATCCGTATTTGGG (site ACGGCCTCTCC)”: 0.0343. “ACGGGCGCATGGACCGGTTTTCCCGGTAATCCGTATTTGAG (site ACGGGCGCTCT)”: the “recombinant UMI read abundance (log10)” value stood at 1.15.

Take “ACGGTATCATGGACCGGTTTTCCCGGTAATCCGTATTTGCA (site ACAGTATCTTG)”: the “recombinant UMI read abundance (log10)” value worked out at 2.96. In the case of “ACGGTATCATGGACCGGTTTTCCCGGTAATCCGTATTTGCA (site ACCGTATCTTG)” it was 1.92; in that of “ACGGTATCATGGACCGGTTTTCCCGGTAATCCGTATTTGCA (site ACGGTATCTTG)”, 3.16; in that of “ACGGTATCATGGACCGGTTTTCCCGGTAATCCGTATTTGCA (site ACTGTATCTTG)”, 2.32. Turning to “ACGGTTTCATGGACCGGTTTTCCCGGTAATCCGTATTTGCA (site ACAGTATCTTG)”, the “recombinant UMI read abundance (log10)” value came to 2.71. Turning to “ACGGTTTCATGGACCGGTTTTCCCGGTAATCCGTATTTGCA (site ACGGTTTCTTG)”, the “recombinant UMI read abundance (log10)” value is 2.34. For “ACGTCCTCATGGACCGGTTTTCCCGGTAATCCGTATTTGGT (site ACGTCCTCTAC)”, the “recombinant UMI read abundance (log10)” value is 1.51.

On to “ACGTGTGCATGGACCGGTTTTCCCGGTAATCCGTATTTGGT (site ACGTGTGCTAC)”, for which the “recombinant UMI read abundance (log10)” value was 1.99. The same measure for “ACTAGAACATGGACCGGTTTTCCCGGTAATCCGTATTTGAG (site AATAGAACTCT)”: 0.839.

As to “ACTAGAACATGGACCGGTTTTCCCGGTAATCCGTATTTGAG (site ACAAGAACTCT)”, the “recombinant UMI read abundance (log10)” value came to 1.26. The same measure for “ACTAGAACATGGACCGGTTTTCCCGGTAATCCGTATTTGAG (site ACCAGAACTCT)”: 1.23; for “ACTAGAACATGGACCGGTTTTCCCGGTAATCCGTATTTGAG (site ACGAGAACTCT)”: 0.424. The same measure for “ACTAGAACATGGACCGGTTTTCCCGGTAATCCGTATTTGAG (site ACTAAAACTCT)”: 0.908; for “ACTAGAACATGGACCGGTTTTCCCGGTAATCCGTATTTGAG (site ACTACAACTCT)”: 0.383. The same measure for “ACTAGAACATGGACCGGTTTTCCCGGTAATCCGTATTTGAG (site ACTAGAACTAT)”: 0.
